Data reported in patent publication US8546079B2, “Reporter gene construct, assay kit and detection method” (Kabushiki Kaisha Toshiba, priority 2010, dated 2013).

Tested on: enhancer region of cytochrome 1A1 gene
Test: Detection of nitrogen monoxide (NO.) having responded to carcinogenicity by iNOS vector pXRE-SV40-NOS2 (DAF2-DA fluorescence)
Type: cell-based, mouse
Conditions: Neuro2a transfected with pXRE-SV40-NOS2; 1.0 μM, 24 hours; compared with DMSO; inverted fluorescence microscope (FIG. 3A, 3B)
From the text: An enhancer region responsive to a carcinogenic substance was incorporated in the iNOS vector: pSV40-NOS2. The enhancer region of cytochrome 1A1 gene responsive to a carcinogenic substance (benzopyrene) (SEQ ID NO: 4) was amplified by PCR from a mouse genome. The 5′ terminal of the amplified enhancer region was phosphorylated with T4 polynucleotide kinase, and ligated using T4 ligase to pSV40-NOS2 having been digested with restriction enzyme Sma I and having its 5′ terminal dephosphorylated with alkali phosphatase, thereby obtaining pXRE-SV40-NOS2 (FIG. 2). Using this vector, the correlation of the activation of the enhancer region by a carcinogenic substance with the amount of nitrogen monoxide (NO.) synthesized by iNOS was studied.
Mouse neuroblastoma Neuro2a (American Type Cell Culture) was seeded on a 24-well plate at a density of 8.0×10^4 cells/well, and using DMEM/F12 medium (DF1:1 medium) supplemented with 10% fetal calf serum (FCS), cultured overnight in a 5% CO2 atmosphere at 37° C. […] Two hours later, the cells were washed with phosphate buffer (PBS) twice, and the fluorescence by the reaction product of DAF-2DA and nitrogen monoxide (NO.) (DAF-2T, excitation wavelength: 495 nm, fluorescence wavelength: 515 nm) was observed by means of an inverted fluorescence microscope.

c1ccc2c(c1)c1cccc3ccc4cccc2c4c31 [benzopyrene]
fluorescence by the reaction product of DAF-2DA and nitrogen monoxide (NO.): induction of fluorescence
